The nature of series [1]: Body weight of rats in method B. Details: species or system male Wistar strain rats. The note with it: rat, in vivo. As for the experimental part: (§1) Male Wistar strain rats (100±1 g, each 8 rats were formed into a group except that the control group fed with a hyperlipidemic diet was formed of 16 rats) were used as test animals. A powdery diet (CE-2, supplied by Clea Japan, Inc.) was used as ordinary diet. The hyperlipidemic diet was prepared by fortifying the ordinary diet with cholesterol (1%) and cholic acid (0.5%). Each test compound (1%) for administration was admixed with the hyperlipidemic diet. Each two rats were kept in a cage and given the prescribed diet and water ad libitum. Thus the rats were fed for 4 weeks at a constant temperature of 23±1° C. and a constant R.H. of 55±5%. Finally, the rats were fasted from food except water for 16 hours (from 4 p.m. of the 28th test day to 8 a.m. of the 29th test day), and under anesthesia with pentbarbital sodium (tradename: Nembutal), blood was taken from each rat through the descending abdominal arota. Then, TC, HDL-C, TG, PL, and LPO in the serum were measured in the following manner.

For series [2], the system named is serum lipids and serum lipid hydroperoxide. Kind of series: Pharmacological test method B for anti-hyperlipidemic activity (serum lipids, 4 weeks feeding). Type of series: in vivo, male Wistar strain rats. Details: AI Diff.: unit not given here. As to conditions: for AI [(TC - HDL-C)/(HDL-C)] / HDL-C in serum / LPO in serum / PL in serum / TC in serum / TG in serum: 1% in hyperlipidemic diet, 4 weeks; for change in vivo at 1 % in diet: Rattus norvegicus, po, 672 h; for change in vivo at 1 % in diet / AI Diff. / HDL-C Diff. / LPO Diff. / PL Diff. / TC % of diff. / TC Diff. / TG Diff.: versus control group. As for the experimental part: Pharmacological test method B for anti-hyperlipidemic acitivity (the term "method B" was used in the present specification)
as §1
A TC kit-K (supplied by Nippon Shoji Kaisha, Ltd.) was used. The principle of this determination is as follows: The ester of cholesterol in the serum is hydrolyzed with cholesterol-ester hydrolase into free cholesterol and fatty acids. All the free cholesterol is oxidized with cholesterol oxydase to form Δ^4 -cholestenone and hydrogen peroxide. Phenol and 4-aminoantipyrin are oxidatively condensed together by the formed hydrogen peroxide and peroxydase. The produced red quinone coloring matter is measured by colorimetry for absorbance at 500 nm using a spectrophotometer, thereby determining the TC:
The color-developing liquid (3.0 ml) is well mixed with the sample serum (0.02 ml). The mixture once heated at 37° C. for 15 minutes, is measured for absorbance at 500 nm with a spectrophotometer. The found absorbance is denoted by EA. On the other hand, the color-developing liquid (3.0 ml) is well mixed with the standard solution. The mixture is treated and measured for absorbance at 500 nm in the same manner as the above. This found absorbance is denoted by ES. Both EA and ES are determined with reference to the value of the blank test conducted using the color-developing liquid (3.0 ml) alone. [formula]
An HDL-C kit-N (supplied by Nippon Shoji Kaisha, Ltd.) was used. […] (VLDL) and lo density lipoprotein (LDL) in the serum is precipitated by the action of heparin. The precipitate is separated by centrifugation. High density lipoprotein (HDL) is dissolved in the separated supernatant. Esters of cholesterol in this fraction is hydrolyzed with cholesterol-ester hydrolase into free cholesterol and fatty acids. All the free cholesterol is oxidized with cholesterol oxydase to form Δ^4 -cholestenone and hydrogen peroxide. Phenol and 4-aminoantipyrine are oxidatively condensed together by the formed hydrogen peroxide and peroxydase. The produced red quinone coloring matter is measured by colorimetry for absorbance at 500 nm using a spectrophotometer, thereby determining the HDL-C.
A PL kit-K (supplied by Nippon Shoji Kaisha, Ltd.) was used for the determination. Lecithin, sphingomyelin, and lysolecithin are decomposed by phospholipase D into choline and phosphatidic acid, N-acylsphingosyl phosphate, or lysophosphatidic acid, respectively. The resulting choline is quantitatively decomposed by choline oxydase into hydrogen peroxide and betaine. With this hydrogen peroxide, and aid of peroxydase, phenol and 4-aminoantipyrin are condensed into red quinone pigment, then the absorbance at 500 nm of which is measured with a spectrophotometer, thereby determining the PL. […]

Like-named read-outs stand apart in the source and are kept apart here.

Turning to `CCCOc1cc(C=C(C)C(=O)OC2CCC34CC35CCC3(C)C(C(C)CCC=C(C)C)CCC3(C)C5CCC4C2(C)C)ccc1O` (stereo not drawn) [Example 146, cycloartenyl ester of 4-hydroxy-3-propoxy-α-methylcinnamic acid], in series [1], the “Body weight during feed period, 1st day” value was determined as 106 ± 5.9 g; the “Body weight during feed period, 8th day” value came to 149 ± 11.0 g; the “Body weight during feed period, 15th day” value is 193 ± 17.5 g; the “Body weight during feed period, 22nd day” value came to 243 ± 15.8 g. In series [1], the “Body weight during feed period, 28th day” value amounted to 271 ± 20.2 g and the “Body weight just before blood sampling, 29th day” value is recorded as 258 ± 19.1 g. Besides, in series [2], the “AI [(TC - HDL-C)/(HDL-C)]” value was 7.479, the HDL-C in serum turned out to be 23.4 mg/dL, the LPO in serum is 2.02 nmol/mL and the PL in serum was found to be 97.6 mg/dL. In addition, in series [2], the TC in serum amounted to 198.4 mg/dL, the TG in serum turned out to be 51.4 mg/dL, the “AI Diff.” value was -14.28 and the “HDL-C Diff.” value is reported as “+9.9 mg/dl”. Moreover, in series [2], the “LPO Diff.” value was -0.80 nmol/mL, the “PL Diff.” value is -42.5 mg/dL, the “TC % of diff.” value is -38.1% and the “TC Diff.” value was -108.9 mg/dL. In series [2], the “TG Diff.” value was -5.1 mg/dL. The change in vivo at 1 % in diet in series [2] (read-out: AI % of diff.) is -65.6%. Further, the change in vivo at 1 % in diet in series [2] (read-out: HDL-C % of diff.) worked out at 73.3%. In series [2] (read-out: LPO % of diff.), the change in vivo at 1 % in diet is -28.4%. In series [2] (read-out: PL % of diff.), the change in vivo at 1 % in diet is -30.3%. Moreover, in series [2] (read-out: TG % of diff.), the change in vivo at 1 % in diet was -9%.
As for `CCOc1ccc(N)cc1C=CC(=O)OC1CCC23CC24CCC2(C)C(C(C)CCC=C(C)C)CCC2(C)C4CCC3C1(C)C` (stereo not drawn) [Example 183, Cycloartenyl ester of 5-amino-2-ethoxycinnamic acid], in series [1], the “Body weight during feed period, 1st day” value came out at 105 ± 3.9 g; the “Body weight during feed period, 8th day” value was 142 ± 8.8 g; the “Body weight during feed period, 15th day” value worked out at 189 ± 11.9 g; the “Body weight during feed period, 22nd day” value is 239 ± 16.5 g. In series [1], the “Body weight during feed period, 28th day” value is on record as 268 ± 20.9 g and the “Body weight just before blood sampling, 29th day” value turned out to be 257 ± 18.8 g. In addition, in series [2], the “AI [(TC - HDL-C)/(HDL-C)]” value was 7.356, the HDL-C in serum turned out to be 29.2 mg/dL, the LPO in serum was found to be 2.08 nmol/mL and the PL in serum worked out at 125.7 mg/dL. In series [2], this compound displayed a TC in serum of 244.0 mg/dL and a TG in serum of 65.2 mg/dL.
With `CCC(=Cc1ccc(O)cc1)C(=O)OC1CCC23CC24CCC2(C)C(C(C)CCC=C(C)C)CCC2(C)C4CCC3C1(C)C` (stereo not drawn) [Example 130, cycloartenyl ester of 4-hydroxy-α-ethylcinnamic acid], in series [1], the “Body weight during feed period, 1st day” value stood at 105 ± 3.3 g; the “Body weight during feed period, 8th day” value is listed as 144 ± 9.3 g; the “Body weight during feed period, 15th day” value is reported as 194 ± 18.1 g; the “Body weight during feed period, 22nd day” value is listed as 245 ± 15.7 g. Further, in series [1], the “Body weight during feed period, 28th day” value is reported as 271 ± 18.0 g and the “Body weight just before blood sampling, 29th day” value was determined as 258 ± 20.2 g. In series [2], the “AI [(TC - HDL-C)/(HDL-C)]” value turned out to be 8.586, the HDL-C in serum was 21.0 mg/dL, the LPO in serum was determined as 2.07 nmol/mL and the PL in serum turned out to be 107.2 mg/dL. In addition, in series [2], the TC in serum is 201.3 mg/dL, the TG in serum worked out at 53.4 mg/dL, the “AI Diff.” value is -13.17 and the “HDL-C Diff.” value is listed as “+7.5 mg/dl”. Further, in series [2], the “LPO Diff.” value is -0.75 nmol/mL, the “PL Diff.” value is -32.9 mg/dL, the “TC % of diff.” value is -34.5% and the “TC Diff.” value is -106.0 mg/dL. Further, the “TG Diff.” value in series [2] was -3.1 mg/dL. For the same compound, the change in vivo at 1 % in diet in series [2] (read-out: AI % of diff.) is -60.5%. In addition, the change in vivo at 1 % in diet in series [2] (read-out: HDL-C % of diff.) is 55.6%. In addition, the change in vivo at 1 % in diet in series [2] (read-out: LPO % of diff.) was -26.6%. The change in vivo at 1 % in diet in series [2] (read-out: PL % of diff.) is -23.5%. The change in vivo at 1 % in diet in series [2] (read-out: TG % of diff.) is -5.5%.
For `C=C(CCC(C)C1CCC2(C)C3CCC4C(C)(C)C(OC(=O)C(C)=Cc5ccc(N)c(OC)c5)CCC45CC35CCC12C)C(C)C` (stereo not drawn) [Example 191, 24-Methylenecycloartanyl ester of 4-amino-3-methoxy-α-methylcinnamic acid], in series [1], the “Body weight during feed period, 1st day” value was 104 ± 3.7 g; the “Body weight during feed period, 8th day” value is on record as 142 ± 9.6 g; the “Body weight during feed period, 15th day” value is given as 188 ± 12.9 g; the “Body weight during feed period, 22nd day” value is 239 ± 14.9 g. In addition, in series [1], the “Body weight during feed period, 28th day” value is 268 ± 21.7 g and the “Body weight just before blood sampling, 29th day” value is listed as 257 ± 20.6 g. In addition, in series [2], the “AI [(TC - HDL-C)/(HDL-C)]” value is reported as 5.634, the HDL-C in serum turned out to be 28.4 mg/dL, the LPO in serum turned out to be 2.08 nmol/mL and the PL in serum was determined as 117.3 mg/dL. In series [2], this compound displayed a TC in serum of 188.4 mg/dL and a TG in serum of 60.4 mg/dL.
In the case of `COc1cc(C=C(C)C(=O)OC2CCC34CC35CCC3(C)C(C(C)CCC=C(C)C)CCC3(C)C5CCC4C2(C)C)ccc1O` (stereo not drawn) [Example 114, cycloartenyl ester of 4-hydroxy-3-methoxy-α-methylcinnamic acid], in series [1], the “Body weight during feed period, 1st day” value was 105 ± 3.3 g; the “Body weight during feed period, 8th day” value is 145 ± 9.5 g; the “Body weight during feed period, 15th day” value was found to be 194 ± 18.0 g; the “Body weight during feed period, 22nd day” value turned out to be 247 ± 16.6 g. In series [1], the “Body weight during feed period, 28th day” value came out at 277 ± 14.9 g and the “Body weight just before blood sampling, 29th day” value was 265 ± 14.5 g. Besides, in series [2], the “AI [(TC - HDL-C)/(HDL-C)]” value stood at 4.711, the HDL-C in serum worked out at 24.2 mg/dL, the LPO in serum amounted to 2.04 nmol/mL and the PL in serum came out at 96.7 mg/dL. In series [2], the TC in serum was 138.2 mg/dL, the TG in serum is 39.0 mg/dL, the “AI Diff.” value is on record as -17.05 and the “HDL-C Diff.” value is reported as “+10.7 mg/dl”. For the same compound, in series [2], the “LPO Diff.” value is -0.78 nmol/mL, the “PL Diff.” value is -43.4 mg/dL, the “TC % of diff.” value was -55.0% and the “TC Diff.” value was -169.1 mg/dL. Besides, the “TG Diff.” value in series [2] is -17.5 mg/dL. The change in vivo at 1 % in diet in series [2] (read-out: AI % of diff.) is -78.4%. Also, the change in vivo at 1 % in diet in series [2] (read-out: HDL-C % of diff.) was determined as 79.3%. Also, the change in vivo at 1 % in diet in series [2] (read-out: LPO % of diff.) was -27.7%. Besides, the change in vivo at 1 % in diet in series [2] (read-out: PL % of diff.) is -31%. The change in vivo at 1 % in diet in series [2] (read-out: TG % of diff.) is -31%.
Take `C=C(CCC(C)C1CCC2(C)C3CCC4C(C)(C)C(OC(=O)C(C)=Cc5cc(N)ccc5OCCC)CCC45CC35CCC12C)C(C)C` (stereo not drawn) [Example 197, 24-Methylenecycloartanyl ester of 5-amino-2-propoxy-α-methylcinnamic acid]: in series [1], the “Body weight during feed period, 1st day” value is on record as 104 ± 3.4 g; the “Body weight during feed period, 8th day” value stood at 142 ± 8.4 g; the “Body weight during feed period, 15th day” value was 188 ± 13.6 g; the “Body weight during feed period, 22nd day” value came out at 239 ± 16.2 g. In series [1], the “Body weight during feed period, 28th day” value was 268 ± 20.8 g and the “Body weight just before blood sampling, 29th day” value is on record as 257 ± 20.4 g. For the same compound, in series [2], the “AI [(TC - HDL-C)/(HDL-C)]” value is given as 7.177, the HDL-C in serum worked out at 27.1 mg/dL, the LPO in serum stood at 2.05 nmol/mL and the PL in serum is 115.5 mg/dL. In series [2], the TC in serum was 221.6 mg/dL and the TG in serum was 61.2 mg/dL.

These data come from US4748161A, “Triterpenyl esters of organic acids and hypolipidemic agents composed of them” (Amano Pharmaceutical Co., Ltd., priority 1984, dated 1988).
